Results on ten compounds are retold here after PubChem BioAssay AID1259407 (Chemical Carcinogenesis Research Information System (CCRIS), 2018).

Activity calls are given as the source filed them. No rule for the calls is given here.

This data set deals with CCRIS mutagenicity, Ames/micronucleus/aberration tests. The data set is described as follows: CCRIS mutagenicity studies.
Setting [1] is: Test System: AMES SALMONELLA TYPHIMURIUM, Strain/Indicator: TA98, Metabolic Activation: NONE, Method: STANDARD PLATE.
The mark [2] stands for this setting: Test System: AMES SALMONELLA TYPHIMURIUM, Strain/Indicator: TA100, Metabolic Activation: NONE, Method: STANDARD PLATE.

Consider `O=[N+]([O-])C(Cl)(Cl)Br`, for which the mutagenic call (Test System: Ames Salmonella typhimurium, Strain/Indicator: RSJ100, Metabolic Activation: None, Method: Standard plate) is “inactive; negative”; the mutagenic call (Test System: Ames Salmonella typhimurium, Strain/Indicator: RSJ100, Metabolic Activation: Rat, Liver, S-9, Aroclor, Method: Standard plate) was “active; positive”; the mutagenic call (Test System: Ames Salmonella typhimurium, Strain/Indicator: TA98, Metabolic Activation: None, Method: Standard plate) was “inactive; negative”; the mutagenic call (Test System: Ames Salmonella typhimurium, Strain/Indicator: TA98, Metabolic Activation: Rat, Liver, S-9, Aroclor, Method: Standard plate) was “inactive; negative”; the mutagenic call (Test System: Ames Salmonella typhimurium, Strain/Indicator: TA100, Metabolic Activation: None, Method: Standard plate) was “inactive; negative”; the mutagenic call (Test System: Ames Salmonella typhimurium, Strain/Indicator: TA100, Metabolic Activation: Rat, Liver, S-9, Aroclor, Method: Standard plate) was “inactive; negative”. In addition, the mutagenic call runs as follows: (Test System: Ames Salmonella typhimurium, Strain/Indicator: TA104, Metabolic Activation: None, Method: Standard plate) “active; positive”; (Test System: Ames Salmonella typhimurium, Strain/Indicator: TA104, Metabolic Activation: Rat, Liver, S-9, Aroclor, Method: Standard plate) “active; positive”; (Test System: Ames Salmonella typhimurium, Strain/Indicator: TPT100, Metabolic Activation: None, Method: Standard plate) “inactive; negative”.
`COc1cc2ccnc3c2c(c1OC)-c1ccccc1C3=O`: for the setting “Test System: AMES SALMONELLA TYPHIMURIUM, Strain/Indicator: TA100, Metabolic Activation: RAT, LIVER, S-9, PHENOBARBITAL AND BETA-NAPHTHOFLAVONE, Method: PREINCUBATION”, the mutagenic call was “active; positive”.
As to `CN1CC[C@@]2(C)c3cc(O)ccc3N(C)[C@@H]12`, the mutagenic call reads like this: (Test System: AMES SALMONELLA TYPHIMURIUM, Strain/Indicator: TA97, Metabolic Activation: NONE, Method: STANDARD PLATE) “inactive; negative”; (Test System: AMES SALMONELLA TYPHIMURIUM, Strain/Indicator: TA97, Metabolic Activation: S-9, Method: STANDARD PLATE) “inactive; negative”; under setting [1], “inactive; negative”; (Test System: AMES SALMONELLA TYPHIMURIUM, Strain/Indicator: TA98, Metabolic Activation: S-9, Method: STANDARD PLATE) “inactive; negative”; under setting [2], “inactive; negative”; (Test System: AMES SALMONELLA TYPHIMURIUM, Strain/Indicator: TA100, Metabolic Activation: S-9, Method: STANDARD PLATE) “inactive; negative”. Also, the mutagenic call reads like this: (Test System: AMES SALMONELLA TYPHIMURIUM, Strain/Indicator: TA104, Metabolic Activation: NONE, Method: STANDARD PLATE) “inactive; negative”; (Test System: AMES SALMONELLA TYPHIMURIUM, Strain/Indicator: TA104, Metabolic Activation: S-9, Method: STANDARD PLATE) “inactive; negative”; (Test System: AMES SALMONELLA TYPHIMURIUM, Strain/Indicator: TA1535, Metabolic Activation: NONE, Method: STANDARD PLATE) “inactive; negative”; (Test System: AMES SALMONELLA TYPHIMURIUM, Strain/Indicator: TA1535, Metabolic Activation: S-9, Method: STANDARD PLATE) “inactive; negative”; (Test System: AMES SALMONELLA TYPHIMURIUM, Strain/Indicator: TA1537, Metabolic Activation: NONE, Method: STANDARD PLATE) “inactive; negative”; (Test System: AMES SALMONELLA TYPHIMURIUM, Strain/Indicator: TA1537, Metabolic Activation: S-9, Method: STANDARD PLATE) “inactive; negative”. The mutagenic call (Test System: AMES SALMONELLA TYPHIMURIUM, Strain/Indicator: TA1538, Metabolic Activation: S-9, Method: STANDARD PLATE) was “inactive; negative”.
Consider `CC(C)C(=O)Nc1ccccc1`, for which the mutagenic call under setting [2] was “inactive; negative”.
`O=C(NCc1ccccc1)C(Cl)c1ccccc1` (centres undefined): the mutagenic call (Test System: AMES SALMONELLA TYPHIMURIUM, Strain/Indicator: TA100, Metabolic Activation: MOUSE, LIVER, S-9, AROCLOR 1254, Method: STANDARD PLATE) was “inactive; negative” and the mutagenic call under setting [2] was “active; positive”.
Turning to `O=[N+]([O-])c1ccc2[nH]c3c([N+](=O)[O-])cccc3c2c1`, the mutagenic call (Test System: AMES SALMONELLA TYPHIMURIUM, Strain/Indicator: TA98(NR), Metabolic Activation: NONE, Method: STANDARD PLATE) was “active; positive”; the mutagenic call (Test System: AMES SALMONELLA TYPHIMURIUM, Strain/Indicator: TA98(NR), Metabolic Activation: RAT, LIVER, S-9, AROCLOR 1254, Method: STANDARD PLATE) was “active; positive”; the mutagenic call under setting [1] was “active; positive”; the mutagenic call (Test System: AMES SALMONELLA TYPHIMURIUM, Strain/Indicator: TA98, Metabolic Activation: RAT, LIVER, S-9, AROCLOR 1254, Method: STANDARD PLATE) was “active; positive”.
`[Cl][Cu][Cl]`: the mutagenic call reads like this: (Test System: E. COLI, Strain/Indicator: WP2 UVRA, Metabolic Activation: NONE, Method: SPOT TEST) “active; positive”; (Test System: E. COLI, Strain/Indicator: WP2 UVRA, Metabolic Activation: NONE, Method: STANDARD PLATE) “active; positive”.
Take `COc1c2cc3c(cc2nc2occc12)OCO3`: the mutagenic call (Test System: AMES SALMONELLA TYPHIMURIUM, Strain/Indicator: TA98, Metabolic Activation: RAT, LIVER, S-9, PHENOBARBITAL, Method: STANDARD PLATE) is “active; positive” and the mutagenic call (Test System: AMES SALMONELLA TYPHIMURIUM, Strain/Indicator: TA100, Metabolic Activation: RAT, LIVER, S-9, PHENOBARBITAL, Method: STANDARD PLATE) was “active; positive”.
Regarding `Cc1c2ccccc2c(CO)c2c1ccc1ccccc12`, the mutagenic call is “active; positive” (Test System: CHINESE HAMSTER V-79, Strain/Indicator: V-79/6-THIOGUANINE, Metabolic Activation: CELL-MEDIATED, Method: STANDARD PLATE) and “active; positive” (Test System: CHINESE HAMSTER V-79, Strain/Indicator: V-79/OUABAIN, Metabolic Activation: CELL-MEDIATED, Method: STANDARD PLATE).
With `CCCCCCCCCCCCCCCCCC(=O)NCCNC(=O)CCCCCCCCCCCCCCCCC`, the mutagenic call is, setting by setting: (Test System: AMES SALMONELLA TYPHIMURIUM, Strain/Indicator: TA98, Metabolic Activation: NONE, Method: PREINCUBATION) “inactive; negative”; (Test System: AMES SALMONELLA TYPHIMURIUM, Strain/Indicator: TA98, Metabolic Activation: RAT LIVER S-9, PHENOBARBITAL AND BETA-NAPHTHOFLAVONE, Method: PREINCUBATION) “inactive; negative”; (Test System: AMES SALMONELLA TYPHIMURIUM, Strain/Indicator: TA98, Metabolic Activation: RAT, LIVER, S-9, KC 500, Method: PREINCUBATION) “inactive; negative”; (Test System: AMES SALMONELLA TYPHIMURIUM, Strain/Indicator: TA100, Metabolic Activation: NONE, Method: PREINCUBATION) “inactive; negative”; (Test System: AMES SALMONELLA TYPHIMURIUM, Strain/Indicator: TA100, Metabolic Activation: RAT LIVER S-9, PHENOBARBITAL AND BETA-NAPHTHOFLAVONE, Method: PREINCUBATION) “inactive; negative”; (Test System: AMES SALMONELLA TYPHIMURIUM, Strain/Indicator: TA100, Metabolic Activation: RAT, LIVER, S-9, KC 500, Method: PREINCUBATION) “inactive; negative”. Further, the mutagenic call runs as follows: (Test System: AMES SALMONELLA TYPHIMURIUM, Strain/Indicator: TA1535, Metabolic Activation: NONE, Method: PREINCUBATION) “inactive; negative”; (Test System: AMES SALMONELLA TYPHIMURIUM, Strain/Indicator: TA1535, Metabolic Activation: RAT LIVER S-9, PHENOBARBITAL AND BETA-NAPHTHOFLAVONE, Method: PREINCUBATION) “inactive; negative”; (Test System: AMES SALMONELLA TYPHIMURIUM, Strain/Indicator: TA1535, Metabolic Activation: RAT, LIVER, S-9, KC 500, Method: PREINCUBATION) “inactive; negative”; (Test System: AMES SALMONELLA TYPHIMURIUM, Strain/Indicator: TA1537, Metabolic Activation: NONE, Method: PREINCUBATION) “inactive; negative”; (Test System: AMES SALMONELLA TYPHIMURIUM, Strain/Indicator: TA1537, Metabolic Activation: RAT LIVER S-9, PHENOBARBITAL AND BETA-NAPHTHOFLAVONE, Method: PREINCUBATION) “inactive; negative”; (Test System: AMES SALMONELLA TYPHIMURIUM, Strain/Indicator: TA1537, Metabolic Activation: RAT, LIVER, S-9, KC 500, Method: PREINCUBATION) “inactive; negative”. The mutagenic call was “inactive; negative” (Test System: AMES SALMONELLA TYPHIMURIUM, Strain/Indicator: TA1538, Metabolic Activation: NONE, Method: PREINCUBATION); “inactive; negative” (Test System: AMES SALMONELLA TYPHIMURIUM, Strain/Indicator: TA1538, Metabolic Activation: RAT, LIVER, S-9, KC 500, Method: PREINCUBATION); “inactive; negative” (Test System: E. COLI, Strain/Indicator: WP2 UVRA, Metabolic Activation: NONE, Method: PREINCUBATION); “inactive; negative” (Test System: E. COLI, Strain/Indicator: WP2 UVRA, Metabolic Activation: RAT, LIVER, S-9, KC 500, Method: PREINCUBATION); “inactive; negative” (Test System: E.COLI, Strain/Indicator: WP2UVRA/PKM101, Metabolic Activation: NONE, Method: PREINCUBATION); “inactive; negative” (Test System: E.COLI, Strain/Indicator: WP2UVRA/PKM101, Metabolic Activation: RAT LIVER S-9, PHENOBARBITAL AND BETA-NAPHTHOFLAVONE, Method: PREINCUBATION).
